Earlier results as cited in patent US12263217B2, “Nucleic acid stabilizing solution for vaccines, therapy, diagnostics, storage, and transport” (Daykin Molecular Systems, LLC, priority 2020, dated 2025).

For tris(hydroxymethyl)aminomethane, the doses well tolerated (in vivo) is given as 3.6 grams/50 kg body weight and the doses clinically used (parenteral) is given as “up to 500 mg/kg weight”.
